Among the data in patent publication US7495104B2, “Quinoline or quinazoline derivatives inhibiting auto-phosphorylation of fibroblast growth factor receptors” (Kirin Beer Kabushiki Kaisha, priority 2001, dated 2009) are IC50 values, retold here.

Molecules are shown by their SMILES. Where a name gives a salt, the structure may show the parent alone. Where only a bound is given, the exact number is not on record here.

Bek, sequence (P21802 431-767 limits assumed): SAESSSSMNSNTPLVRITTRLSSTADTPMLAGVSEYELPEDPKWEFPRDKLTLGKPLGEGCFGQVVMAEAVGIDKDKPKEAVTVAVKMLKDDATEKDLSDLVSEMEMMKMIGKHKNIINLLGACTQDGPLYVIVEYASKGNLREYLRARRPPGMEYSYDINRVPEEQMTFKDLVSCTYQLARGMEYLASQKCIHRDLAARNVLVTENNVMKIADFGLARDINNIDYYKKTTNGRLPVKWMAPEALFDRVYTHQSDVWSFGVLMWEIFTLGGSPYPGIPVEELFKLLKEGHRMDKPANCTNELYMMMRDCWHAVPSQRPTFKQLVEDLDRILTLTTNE

The assay concerns the target Bek (Homo sapiens, UniProt P21802). Briefly: Inhibitory activity against Bek-autophosphorylation using ELISA method in OCUM-2MD3 cells. Conditions: 1 hr with compound, read-out: IC50 (concentration necessary for inhibiting 50% of Bek-phosphorylation). The assay is classed as cell-based. The gist of the method: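 OCUM-2MD3 human scirrhous gastric cancer cells in 0.1% FCS were exposed to compound for 1 hr at 37° C, then lysed. Phospho-tyrosine proteins were captured with anti-phosphotyrosine antibody, probed with anti-Bek antibody and peroxidase read-out (A450). Positive control (1000 nM) set 0%, untreated 100%; IC50 from multi-level dilutions.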
(In general: In an ELISA, binding on a coated surface is turned into a signal by an enzyme label.)
`COc1cc2c(Oc3ccc(NC(=O)NCCC(C)(C)C)c(Cl)c3)ccnc2cc1OCC1CCCNC1` (stereo not shown) [Compound 190, 1-{2-Chloro-4-[6-methoxy-7-(piperidin-3-ylmethoxy)-quinolin-4-yloxy]-phenyl}-3-(3,3-dimethyl-butyl)-urea]: the IC50 was 0.0335 µM.

Take `COC(=O)COc1cc2nccc(Oc3ccc(NC(=O)NCCC(C)(C)C)cc3)c2cc1OC` [Compound 215, Methyl (4-{4-[3-(3,3-dimethyl-butyl)-ureido]-phenoxy}-6-methoxy-quinolin-7-yloxy)-acetate]: the IC50 was 0.341 µM.

In the case of `COc1cc2nccc(Oc3ccc(NC(=O)NCCC(C)(C)C)cc3C)c2cc1OC` [Compound 137, 1-[4-(6,7-Dimethoxy-quinolin-4-yloxy)-3-methyl-phenyl]-3-(3,3-dimethyl-butyl)-urea], the IC50 was 0.0667 µM.

In the case of `COc1cc2nccc(Oc3ccc(NC(=O)NC4CCCC(C)(C)C4)c(F)c3)c2cc1OC` (stereo not shown) [Compound 109, 1-[4-(6,7-Dimethoxy-quinolin-4-yloxy)-2-fluoro-phenyl]-3-(3,3-dimethyl-cyclohexyl)-urea], the IC50 was under 0.01 µM.

With `CCNCC(O)COc1cc2nccc(Oc3ccc(NC(=O)NCCC(C)(C)C)c(Cl)c3)c2cc1OC` (stereo not shown) [Compound 198, 1-{2-Chloro-4-[7-(3-ethylamino-2-hydroxy-propoxy)-6-methoxy-quinolin-4-yloxy]-phenyl}-3-(3,3-dimethyl-butyl)-urea], the IC50 turned out to be 0.0123 µM.

Consider `COc1cc2c(Oc3ccc(NC(=O)NCCC(C)(C)C)c(Cl)c3)ccnc2cc1OCCCN1CCCC1` [Compound 179, 1-{2-Chloro-4-[6-methoxy-7-(3-pyrrolidin-1-yl-propoxy)-quinolin-4-yloxy]-phenyl}-3-(3,3-dimethyl-butyl)-urea], for which the IC50 turned out to be 0.0173 µM.

As to `COc1cc2c(Oc3ccc(Nc4ccc(C(C)(C)C)cc4)cc3)ccnc2cc1OCC(O)CN1CCN(C)CC1` (stereo not shown) [Compound 64, 1-{4-[4-(4-Tert-butylphenylamino)phenoxy]-6-methoxyquinolin-7-yloxy}-3-(4-methylpiperazin-1-yl)propan-2-ol], the IC50 was 0.178 µM.

Regarding `COc1cc2c(Oc3ccc(Nc4ccc(C(C)(C)C)cc4)cc3)ccnc2cc1OCCC1CCCN1C` (stereo not shown) [Compound 27, (4-Tert-butylphenyl)-(4-{6-methoxy-7-[2-(1-methylpyrrolidin-2-yl)ethoxy]quinolin-4-yloxy}phenyl)amine], the IC50 worked out at 2.52 µM.

On to `COc1cc2c(Oc3ccc(Nc4ccc(C(C)(C)C)cc4)cc3)ccnc2cc1OCCN1CCC(CO)CC1` [Compound 81, [1-(2-{4-[4-(4-Tert-butylphenylamino)phenoxy]-6-methoxy-quinolin-7-yloxy}ethyl)piperidin-4-yl]methanol], for which the IC50 is 0.0101 µM.

Consider `COc1cc2c(Oc3ccc(Nc4ccc(C(C)(C)C)cc4)cc3)ccnc2cc1OCCC(C)N1CCOCC1` (stereo not shown) [Compound 80, (4-Tert-butylphenyl)-{4-[6-methoxy-7-(3-morpholin-4-ylbutoxy)-quinolin-4-yloxy]phenyl}amine], for which the IC50 was 0.151 µM.

On to `COc1cc2c(Oc3ccc(Nc4ccc(C(C)(C)C)cc4)c(Cl)c3)ccnc2cc1OCCCN1CCC(CCO)CC1` [Compound 294, 2-[1-(3-{4-[4-(4-Tert-butyl-phenylamino)-3-chloro-phenoxy]-6-methoxy-quinolin-7-yloxy}-propyl)-piperidin-4-yl]-ethanol], for which the IC50 came out at 1.1 µM.

Consider `COc1cc2c(Oc3ccc(NC(=O)NCCC(C)(C)C)cc3)ccnc2cc1OCCN(CC(C)O)CC(C)O` (stereo not shown) [Compound 360, 1-[4-(7-{2-[Bis-(2-hydroxy-propyl)-amino]-ethoxy}-6-methoxy-quinolin-4-yloxy)-phenyl]-3-(3,3-dimethyl-butyl)-urea], for which the IC50 worked out at 0.0195 µM.

`COCCNCCCOc1cc2nccc(Oc3ccc(NC(=O)NCCC(C)(C)C)cc3)c2cc1OC` [Compound 271, 1-(3,3-Dimethyl-butyl)-3-(4-{6-methoxy-7-[3-(2-methoxy-ethylamino)-propoxy]-quinolin-4-yloxy}-phenyl)-urea]: the IC50 stood at 0.0332 µM.

As for `COc1cc2c(Oc3ccc(NC(=O)NCCC(C)(C)C)cc3)ccnc2cc1OCCN1CCC(c2ccccc2)CC1` [Compound 121, 1-(3,3-Dimethyl-butyl)-3-(4-{6-methoxy-7-[2-(4-phenyl-piperidin-1-yl)-ethoxy]-quinolin-4-yloxy}-phenyl)-urea], the IC50 was found to be 0.088 µM.

For the compound `COc1cc2c(Oc3ccc(NC(=O)NCCC(C)(C)C)c(Cl)c3)ccnc2cc1OCCN(C)CCO` [Compound 177, 1-[2-Chloro-4-(7-{2-[(2-hydroxy-ethyl)-methyl-amino]-ethoxy}-6-methoxy-quinolin-4-yloxy)-phenyl]-3-(3,3-dimethyl-butyl)-urea], the IC50 came out at 0.0106 µM.

As to `COc1cc2c(Oc3ccc(NC(=O)NCCC(C)(C)C)cc3)ccnc2cc1OCCN1CCN(C)CC1` [Compound 113, 1-(3,3-Dimethyl-butyl)-3-(4-{6-methoxy-7-[2-(4-methyl-piperazin-1-yl)-ethoxy]-quinolin-4-yloxy}-phenyl)-urea hydrochloride], the IC50 is 0.01 µM.

On to `COc1cc2c(Oc3ccc(NC(=O)NCCC(C)(C)C)c(Cl)c3)ccnc2cc1OCCN1C[C@@H](C)O[C@@H](C)C1` [Compound 116, 1-(2-Chloro-4-{7-[2-(2,6-dimethyl-morpholin-4-yl)-ethoxy]-6-methoxy-quinolin-4-yloxy}-phenyl)-3-(3,3-dimethyl-butyl)-urea], for which the IC50 is 0.0144 µM.

For `COc1cc2c(Oc3ccc(NC(=O)NCCC(C)(C)C)c(F)c3)ccnc2cc1OCCN(C)CCO` [Compound 330, 1-(3,3-Dimethyl-butyl)-3-[2-fluoro-4-(7-{2-[(2-hydroxy-ethyl)-methyl-amino]-ethoxy}-6-methoxy-quinolin-4-yloxy)-phenyl]-urea], the IC50 came to 0.0178 µM.

For the compound `COc1cc2c(Oc3ccc(Nc4ccc(C(C)(C)C)cc4)cc3)ccnc2cc1OCC(O)CN1CCCCC1` (stereo not shown) [Compound 62, 1-{4-[4-(4-Tert-butyl-phenylamino)phenoxy]-6-methoxyquinolin-7-yloxy}-3-piperidin-1-ylpropan-2-ol], the IC50 is 0.249 µM.

With `COc1cc2c(Oc3ccc(NC(=O)NCCC(C)(C)C)cc3F)ccnc2cc1OCCCN1CCOCC1` [Compound 326, 1-(3,3-Dimethyl-butyl)-3-{3-fluoro-4-[6-methoxy-7-(3-morpholin-4-yl-propoxy)-quinolin-4-yloxy]-phenyl}-urea], the IC50 is under 0.01 µM.

Regarding `COc1cc2c(Oc3ccc(Nc4ccc(C(C)(C)C)cc4)cc3)ccnc2cc1OCCCN1CCOCC1` [Compound 24, (4-Tert-butylphenyl)-{4-[6-methoxy-7-(3-morpholin-4-ylpropoxy)quinolin-4-yloxy]phenyl}amine], the IC50 is 0.183 µM.

With `COc1cc2c(Oc3ccc(NC(=O)NCCC(C)(C)C)c(Cl)c3)ccnc2cc1OCC1CCN(CCO)CC1` [Compound 170, 1-(2-Chloro-4-{7-[1-(2-hydroxy-ethyl)-piperidin-4-ylmethoxy]-6-methoxy-quinolin-4-yloxy}-phenyl)-3-(3,3-dimethyl-butyl)-urea], the IC50 was found to be 0.0244 µM.

As to `COc1cc2c(Oc3ccc(NC(=O)NCCC(C)(C)C)cc3Cl)ccnc2cc1OCCN1CCC(O)CC1` [Compound 311, 1-(3-Chloro-4-{7-[2-(4-hydroxy-piperidin-1-yl)-ethoxy]-6-methoxy-quinolin-4-yloxy}-phenyl)-3-(3,3-dimethyl-butyl)-urea], the IC50 stood at 0.0231 µM.

As for `COc1cc2c(Oc3ccc(NC(=O)NCCC(C)(C)C)c(Cl)c3)ccnc2cc1OCCCCN1C(=O)c2ccccc2C1=O` [Compound 164, 1-(2-Chloro-4-{7-[4-(1,3-dioxo-1,3-dihydro-isoindol-2-yl)-butoxy]-6-methoxy-quinolin-4-yloxy}-phenyl)-3-(3,3-dimethyl-butyl)-urea], the IC50 turned out to be 0.26 µM.

For `COc1cc2c(Oc3ccc(Nc4ccc(C(C)(C)C)cc4)cc3)ccnc2cc1OCCCCN1CCOCC1` [Compound 25, (4-Tert-butylphenyl)-{4-[6-methoxy-7-(4-morpholin-4-ylbutoxy)-quinolin-4-yloxy]phenyl}amine], the IC50 was 0.199 µM.

As to `COc1cc2c(Oc3ccc(Nc4ccc(C(C)(C)C)cc4)cc3)ccnc2cc1OCCN1CCCN(C)CC1` [Compound 45, (4-Tert-butylphenyl)-(4-{6-methoxy-7-[2-(4-methyl-[1,4]diazepin-1-yl)ethoxy]quinolin-4-yloxy}phenyl)amine], the IC50 worked out at 0.24 µM.

Consider `COc1cc2c(Oc3ccc(NC(=O)NCCC(C)(C)C)cc3)ccnc2cc1OCCCN1CCN(C)CC1` [Compound 156, 1-(3,3-Dimethyl-butyl)-3-(4-{6-methoxy-7-[3-(4-methyl-piperazin-1-yl)-propoxy]-quinolin-4-yloxy}-phenyl)-urea hydrochloride], for which the IC50 amounted to 0.0191 µM.

In the case of `COc1cc2c(Oc3ccc(NC(=O)NCCC(C)(C)C)c(Cl)c3)ccnc2cc1OCCCCN1CC(C)OC(C)C1` (stereo not shown) [Compound 321, 1-(2-Chloro-4-{7-[4-(2,6-dimethyl-morpholin-4-yl)-butoxy]-6-methoxy-quinolin-4-yloxy}-phenyl)-3-(3,3-dimethyl-butyl)-urea], the IC50 worked out at 0.0254 µM.

As to `COc1cc2c(Oc3ccc(NC(=O)NCCC(C)(C)C)cc3)ccnc2cc1OCCCCl` [Compound 151, 1-{4-[7-(3-Chloro-propoxy)-6-methoxy-quinolin-4-yloxy]-phenyl}-3-(3,3-dimethyl-butyl)-urea], the IC50 came out at 0.221 µM.

Regarding `COc1cc2c(Oc3ccc(NC(=O)NCCC(C)(C)C)c(Cl)c3)ccnc2cc1OCCCCN1CCOCC1` [Compound 320, 1-{2-Chloro-4-[6-methoxy-7-(4-morpholin-4-yl-butoxy)-quinolin-4-yloxy]-phenyl}-3-(3,3-dimethyl-butyl)-urea], the IC50 amounted to 0.0214 µM.

As to `COc1cc2c(Oc3ccc(Nc4ccc(C(C)(C)C)cc4)c(F)c3)ccnc2cc1OCCN1CCC(CCO)CC1` [Compound 305, 2-[1-(2-{4-[4-(4-Tert-butyl-phenylamino)-3-fluoro-phenoxy]-6-methoxy-quinolin-7-yloxy}-ethyl)-piperidin-4-yl]-ethanol], the IC50 is 0.359 µM.
